In patent US8895585B2, “Nicotinamide derivative or salt thereof” (FUJIFILM Corporation, priority 2010, dated 2014):

Legend:
[1] = test system: THP-1 cells; experiment: TNFα generation assay; format: cell-based, human; details: Homo sapiens, THP-1, THP-1 cells; Table 22; read-out: IC50 in TNFα generation assay
How it was run: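 Secreted TNFα in supernatant quantified by ELISA or AlphaLISA after 7 h culture on human IgG-coated wells (10 μg/ml coating). Cells were IFN-γ-differentiated THP-1 (10 ng/ml, 2 days), exposed to compound for 30 min at room temperature before plating.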

[2] = target: T1, glutathione S-transferase (GST)-fused full-length human Syk protein (Homo sapiens, UniProt P43405); experiment: Syk enzyme assay; format: biochemical; details: Syk enzyme assay, Test Example 1; read-out: IC50 of Syk-inhibitory activity
T1 construct: (GST)-fused full-length human Syk protein; GST (glutathione S-transferase); purchased Carna Biosciences
How it was run: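 GST-tagged full-length human Syk (baculovirus) preincubated with compound 15 min at room temperature (pH 7.0, 10 mM MgCl2), then reacted 40 min with 0.4 μM biotinylated peptide substrate and 27 μM ATP (final). Phosphorylation read by HTRF (615/665 nm) after EDTA stop; IC50 reported.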

| Compound | IC50 [1] [nM] | IC50 [2] [nM] |
| --- | --- | --- |
| C[C@H](N)[C@H](Nc1nc(Nc2ccc(N3CCOCC3)nc2)c(C(N)=O)cc1F)C1CC1 [Example 006-515, 6-(((1R,2S)-2-amino-1-cyclopropylpropyl)amino)-5-fluoro-2-((6-morpholinopyridin-3-yl)amino)nicotinamide] | 130 to 200 | < 10 |
| COCCOc1ncc(Nc2nc(N[C@@H]3CCCC[C@@H]3N)c(F)cc2C(N)=O)cc1-n1nccn1 [Example 006-517, 6-(((1R,2S)-2-aminocyclohexyl)amino)-5-fluoro-2-((6-(2-methoxyethoxy)-5-(2H-1,2,3-triazol-2-yl)pyridin-3-yl)amino)nicotinamide] | 65 to 130 | < 10 |
| CCn1ncc2c(Nc3nc(N[C@H](CC(C)C)[C@H](C)N)c(F)cc3C(N)=O)cccc21 [Example 006-519, 6-(((2S,3R)-2-amino-5-methylhexan-3-yl)amino)-2-((1-ethyl-1H-indazol-4-yl)amino)-5-fluoronicotinamide] | 65 to 130 | < 10 |
| CCn1nc(C)c2cc(Nc3nc(N[C@H](CC(C)C)[C@H](C)N)c(F)cc3C(N)=O)ccc21 [Example 006-521, 6-(((2S,3R)-2-amino-5-methylhexan-3-yl)amino)-2-((1-ethyl-3-methyl-1H-indazol-5-yl)amino)-5-fluoronicotinamide] | 65 to 130 | < 10 |
| Cc1nn(CC(F)F)c2ccc(Nc3nc(N[C@H](CC(C)C)[C@H](C)N)c(F)cc3C(N)=O)cc12 [Example 006-522, 6-(((2S,3R)-2-amino-5-methylhexan-3-yl)amino)-2-((1-(2,2-difluoroethyl)-3-methyl-1H-indazol-5-yl)amino)-5-fluoronicotinamide] | < 65 | < 10 |
| CC[C@@H](Nc1nc(Nc2cccc3c2cnn3CC)c(C(N)=O)cc1F)[C@H](C)N [Example 006-523, 6-(((2S,3R)-2-aminopentan-3-yl)amino)-2-((1-ethyl-1H-indazol-4-yl)amino)-5-fluoronicotinamide] | < 65 | < 10 |
| CC[C@@H](Nc1nc(Nc2ccc3c(c2)c(C)nn3CC(F)F)c(C(N)=O)cc1F)[C@H](C)N [Example 006-526, 6-(((2S,3R)-2-aminopentan-3-yl)amino)-2-((1-(2,2-difluoroethyl)-3-methyl-1H-indazol-5-yl)amino)-5-fluoronicotinamide] | < 65 | < 10 |
| COc1cc(Nc2nc(N[C@@H]3CCOC[C@@H]3N)c(F)cc2C(N)=O)ccn1 [Example 006-531, 6-(((3R,4R)-3-aminotrahydro-2H-pyran-4-yl)amino)-5-fluoro-2-((2-methoxypyridin-4-yl)amino)nicotinamide] | 65 to 130 | < 10 |

Other lines, results leading:

| IC50 [1] [nM] | IC50 [2] [nM] | Compound |
| --- | --- | --- |
| < 65 | < 10 | CCn1ncc2cc(Nc3nc(N[C@H](c4ccccc4)[C@H](C)N)c(F)cc3C(N)=O)ccc21 [Example 006-516, 6-(((1R,2S)-2-amino-1-phenylpropyl)amino)-2-((1-ethyl-1H-indazol-5-yl)amino)-5-fluoronicotinamide] |
| < 65 | < 10 | Cc1nn(C)c2ccc(Nc3nc(N[C@H](CC(C)C)[C@H](C)N)c(F)cc3C(N)=O)cc12 [Example 006-520, 6-(((2S,3R)-2-amino-5-methylhexan-3-yl)amino)-2-((1,3-dimethyl-1H-indazol-5-yl)amino)-5-fluoronicotinamide] |
| < 65 | < 10 | CC[C@@H](Nc1nc(Nc2ccc3c(c2)c(C)nn3C)c(C(N)=O)cc1F)[C@H](C)N [Example 006-524, 6-(((2S,3R)-2-aminopentan-3-yl)amino)-2-((1,3-dimethyl-1H-indazol-5-yl)amino)-5-fluoronicotinamide] |
| 65 to 130 | < 10 | CC[C@@H](Nc1nc(Nc2ccc3c(c2)c(C)nn3CC)c(C(N)=O)cc1F)[C@H](C)N [Example 006-525, 6-(((2S,3R)-2-aminopentan-3-yl)amino)-2-((1-ethyl-3-methyl-1H-indazol-5-yl)amino)-5-fluoronicotinamide] |
